Results taken from patent publication US20260034119A1, “5-METHOXY-N,N-[…][…], THEIR […], AND METHODS FOR TREATMENT OF NEUROLOGICAL, […], AND SUBSTANCE USE DISORDERS” (priority 2023, published 2026).
Residue numbers refer to the chain shown, from its start. Entries after “also recorded” stand apart in the source; their conditions may differ.

Assays:
[1] = system: all human 5-HT receptor subtypes; experiment: PRESTO-TANGO arrestin-recruitment assay; format: cell-based; conditions: compared with 5-HT1A
Experimental: The receptor contructs were obtained from Addgene and contain the TEV cleavage site and the tetracycline transactivator (tTA) fused to the C terminus of the receptor. For the assay, constructs were transfected into HTLA cells (kindly provided by Dr. Bryan Roth, University of North Carolina), which express TEV fused-β-Arrestin2 and a tetracycline transactivator-driven luciferase and are necessary for this assay. A day before the assay cells were cultured in DMEM supplemented with 1% dFBS and transfected with 8 μg of DNA per 7 million cells in a 10 cm plate using PEI transfection. The next day, 20,000 cells in 40 μl were then plated in poly-L-lysine-coated clear-bottom 384-well plates in the same media and incubated for at least 5 hr before stimulation. […] After 16-24 hr overnight incubation, media and drug solutions were aspirated and 20 μl per well of BrightGlo reagent (purchased from Promega, after 1:20 dilution) was added per well. The plate was incubated for 20 min at room temperature in the dark before being counted using a MicroBeta TriLux liquid scintillation counter.

PMAT = biological target: T1, PMAT (Homo sapiens, UniProt Q7RTT9); experiment: PMAT uptake inhibition; format: cell-based; conditions: compared with 5-HT1A
T1 construct: expressed in transfected cells; host or cells: Flp-In T-Rex cell line (ThermoFisher), tetracycline-induced
T1 sequence (Q7RTT9 1-530): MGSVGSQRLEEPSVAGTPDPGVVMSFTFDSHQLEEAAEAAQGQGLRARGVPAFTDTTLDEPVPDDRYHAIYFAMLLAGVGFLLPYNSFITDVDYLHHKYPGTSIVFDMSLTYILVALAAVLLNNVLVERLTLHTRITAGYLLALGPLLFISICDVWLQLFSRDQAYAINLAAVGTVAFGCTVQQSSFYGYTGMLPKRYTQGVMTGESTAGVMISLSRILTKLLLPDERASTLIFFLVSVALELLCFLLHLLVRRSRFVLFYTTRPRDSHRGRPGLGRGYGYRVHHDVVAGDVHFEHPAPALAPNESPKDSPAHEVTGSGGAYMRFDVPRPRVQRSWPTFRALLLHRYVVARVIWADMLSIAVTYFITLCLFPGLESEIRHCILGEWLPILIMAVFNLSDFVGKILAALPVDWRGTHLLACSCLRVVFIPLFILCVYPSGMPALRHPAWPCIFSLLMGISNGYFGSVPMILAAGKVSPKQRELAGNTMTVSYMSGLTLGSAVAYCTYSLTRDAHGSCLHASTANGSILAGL
Experimental: Inducible cell lines stably expressing OCT1, OCT2, or PMAT were generated using the Flp-In T-Rex cell line (ThermoFisher) according to manufacturer recommendations. Cells were maintained in DMEM supplemented with 10% FBS, 100 μg/ml hygromycin B (GoldBio), and 10 μg/ml blasticidin (GoldBio). To measure uptake inhibition, cells were seeded into poly-L-lysine coated clear-bottom 384-well plates at a density of 25,000 cells per well in DMEM containing 10% FBS and 2 μg/ml of tetracycline (Sigma) to induce transporter expression. […] Cells were incubated with drug for 30 min at 37° C. Fluorescent substrate was then added to the cells. […] Cells were incubated with respective substrates for an hour at 37° C. OCT2 cells were read directly in a Victor NIVO plate reader using 495 nm excitation and 580 emission filter for 0.1 s. OCT1 and PMAT cells were washed in HBSS supplemented with 20 mM HEPES pH 7.4 before reading in a Victor NIVO plate reader using 435 nm excitation and 480 nm emission filter for 0.1 s.

5-HT1A N386V = biological target: T2, 5-HT1A N386V (Homo sapiens, UniProt P08908, N386V); experiment: Gi1 BRET at mutant 5-HT1A N386V; format: cell-based; conditions: Gi1 BRET, 5-HT1A N386V^7.39
T2 construct: expressed in transfected cells; host or cells: HEK293-T
T2 sequence (P08908 1-422 N386V): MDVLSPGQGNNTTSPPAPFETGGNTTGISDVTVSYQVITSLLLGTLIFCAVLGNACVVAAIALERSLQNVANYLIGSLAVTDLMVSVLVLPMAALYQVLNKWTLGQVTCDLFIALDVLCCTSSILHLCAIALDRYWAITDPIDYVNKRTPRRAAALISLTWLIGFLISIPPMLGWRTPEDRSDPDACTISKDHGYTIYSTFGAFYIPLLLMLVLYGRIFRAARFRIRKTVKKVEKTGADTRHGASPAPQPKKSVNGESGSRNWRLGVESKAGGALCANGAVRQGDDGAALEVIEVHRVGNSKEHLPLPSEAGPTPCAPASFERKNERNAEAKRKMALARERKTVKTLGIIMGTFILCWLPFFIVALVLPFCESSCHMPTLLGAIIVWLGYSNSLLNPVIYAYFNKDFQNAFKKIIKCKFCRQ

human 5-HT1A = biological target: T3, human 5-HT1A (Homo sapiens, UniProt P08908); experiment: 5-HT1A-mediated cAMP reduction assay (GloSensor, HEK293-T); conditions: cAMP, 5-HT1A WT
T3 sequence (P08908 1-422): T2 sequence (P08908 1-422 N386V) with V386N

C57BL/6J mice = experiment: Social interaction test after chronic social defeat stress (CSDS)
5-HT1A = 5-HT1A (Homo sapiens, UniProt P08908); experiment: BRET signaling assay: 5-HT1A-mediated activation of heterotrimeric Gi1 (TRUPATH, HEK293-T)
Sequence of 5-HT1A (P08908 whole entry): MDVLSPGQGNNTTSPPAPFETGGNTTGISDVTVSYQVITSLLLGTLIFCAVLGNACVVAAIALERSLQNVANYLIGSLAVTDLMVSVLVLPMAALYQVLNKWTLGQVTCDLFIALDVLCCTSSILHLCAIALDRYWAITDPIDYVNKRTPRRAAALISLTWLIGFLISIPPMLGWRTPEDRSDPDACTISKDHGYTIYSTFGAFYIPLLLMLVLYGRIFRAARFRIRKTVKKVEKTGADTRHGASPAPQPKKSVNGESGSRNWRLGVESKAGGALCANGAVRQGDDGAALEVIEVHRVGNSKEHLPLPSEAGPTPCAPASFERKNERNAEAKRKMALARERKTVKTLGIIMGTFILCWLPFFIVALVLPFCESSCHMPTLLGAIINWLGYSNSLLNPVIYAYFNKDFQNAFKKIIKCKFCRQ

Question: How did the “activity at all other G protein-coupled serotonin receptors” value [1] turn out when COc1ccc2[nH]cc(CCN3CCCC3)c2c1F [4-F, 5-MeO-PyrT, 4-Fluoro, 5-methoxypyrrolidinyl-tryptamine] was run?
Answer: The value was “substantially lower activity”.

Question: What about the “activity at other neurotransmitter transporters (PMAT)” value (PMAT) of the same molecule?
Answer: Its value is “substantially lower activity”.

Question: And the pEC50 (5-HT1A N386V)?
Answer: Its pEC50 is “(8.52,”.

Question: And the EC50 (5-HT1A N386V; read-out: EC50)?
Answer: Its EC50 is 3 nM.

Question: And the EC50 (human 5-HT1A)?
Answer: The EC50 was 0.03 nM.

Question: And the pEC50 (human 5-HT1A)?
Answer: The pEC50 was 10.5.

Question: What about the “number of resilient mice (SI ratio >1)” value (C57BL/6J mice; drug- vs vehicle-treated stressed animals) of the same molecule?
Answer: Its value is “markedly increases the number of resilient mice”.

Question: What about the “general locomotion at the social interaction test” value (C57BL/6J mice; mice, one s.c. administration) of the same molecule?
Answer: Its value is “no effects of the pharmacological intervention on general locomotion; also recorded: no apparent alterations in locomotor activity”.

Question: What about the “amelioration of SI deficits under WAY-100635 co-administration” value (C57BL/6J mice; stressed mice, co-administered 5-HT1A antagonist WAY-100635) of the same molecule?
Answer: Its value is “blocked”.

Question: What about the “corner time (anxiety-like behavior)” value (C57BL/6J mice; stressed mice, one s.c. administration) of the same molecule?
Answer: The value was “rescued; also recorded: no longer observed”.

Question: What about the “social interaction deficit induced by chronic social defeat stress” value (C57BL/6J mice; stressed mice, one s.c. administration, test 24 hr post drug) of the same molecule?
Answer: The value was “rescued; also recorded: rescuing the social interaction deficit”.

Question: What about the “Emax, 5-HT1A-mediated activation of Gi1 (BRET)” value (5-HT1A) of the same molecule?
Answer: The value was 102.8 % of 5-HT.

Question: And the pEC50 (5-HT1A; Gi1 BRET, 5-HT1A WT)?
Answer: Its pEC50 is “(9.43,”.

Question: What about the EC50 (5-HT1A; read-out: Gi BRET EC50) of the same molecule?
Answer: Its EC50 is 0.37 nM.
